# Experimental data: publication PMC4522657, “Identification of a DYRK1A Inhibitor that Induces Degradation of the Target Kinase using Co-chaperone CDC37 fused with Luciferase nanoKAZ” (Scientific Reports, 2015)
# Experiments:
# Experiment in all cases: Kinase panel, CaNDY 1 µM
# Assay type in all cases: biochemical
# Conditions in all cases: CaNDY 1 µM relative to DMSO
# MAPKAPK2 = biological target: T1, MAPKAPK2 (Homo sapiens, UniProt P49137)
# T1 construct: purchased Carna Biosciences
# From the text: (§1) Detailed information on the assay conditions is available on the website of Carna Biosciences (http://www.carnabio.com/english/index.html; Kobe, Japan). In brief, full-length human recombinant kinases were expressed using a baculovirus expression system as amino-terminal GST-fusion proteins, and purified by glutathione-Sepharose chromatography. The GenBank accession numbers of DYRK1A, DYRK1B, DYRK2, and DYRK3 were NP_001387.2, NP_004705.1, NP_003574.1, and NP_003573.2. Kinase activities were evaluated by Off-chip Mobility Shift Assay after reaction of 1 μM of the substrate DYRKtide-F with ATP (25 μM for DYRK1A, 50 μM for DYRK1B, 10 μM for DYRK2, and 5 μM for DYRK3). For each compound, a DMSO solution was diluted in assay buffer to yield a final concentration of 1% DMSO. After incubation for one hour at room temperature, substrate phosphorylation was analyzed by electrophoretic separation of the substrate and products using a Caliper LC3000 platform (Caliper Life Sciences, Mountain View, CA, USA). The phosphorylated product (P)/(P + substrate) ratio was calculated at each concentration of each small molecule and the percent inhibition was expressed relative to a control assay in the absence of the small molecule. […] The IC50 of each compound was calculated by interpolation on a log-concentration-response curve fitted with a four-parameter logistic equation.
# (§2) All kinase assays were carried out at Carna Biosciences. The inhibitory map was made with Kinome Render[36].
# PAK4 = biological target: T2, PAK4 (Homo sapiens, UniProt O96013)
# T2 construct: purchased Carna Biosciences
# From the text: as §1, §2
# LYNa = biological target: T3, LYNa (Homo sapiens, UniProt P07948)
# T3 construct: purchased Carna Biosciences
# From the text: as §1, §2
# CK1α = biological target: T4, CK1α (Homo sapiens, UniProt P48729)
# T4 construct: purchased Carna Biosciences
# T4 sequence (P48729 whole entry): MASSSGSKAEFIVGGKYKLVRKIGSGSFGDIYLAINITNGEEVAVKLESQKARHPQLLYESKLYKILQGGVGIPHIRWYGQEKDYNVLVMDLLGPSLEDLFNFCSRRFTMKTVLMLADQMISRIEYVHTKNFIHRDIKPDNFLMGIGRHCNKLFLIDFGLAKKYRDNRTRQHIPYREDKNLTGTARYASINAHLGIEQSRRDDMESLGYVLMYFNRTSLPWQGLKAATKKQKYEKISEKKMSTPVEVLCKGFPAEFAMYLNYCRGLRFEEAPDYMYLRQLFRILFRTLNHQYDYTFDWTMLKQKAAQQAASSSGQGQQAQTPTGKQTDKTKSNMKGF
# From the text: as §1, §2
# NuaK2 = biological target: T5, NuaK2 (Homo sapiens, UniProt Q9H093)
# T5 construct: purchased Carna Biosciences
# T5 sequence (Q9H093 whole entry): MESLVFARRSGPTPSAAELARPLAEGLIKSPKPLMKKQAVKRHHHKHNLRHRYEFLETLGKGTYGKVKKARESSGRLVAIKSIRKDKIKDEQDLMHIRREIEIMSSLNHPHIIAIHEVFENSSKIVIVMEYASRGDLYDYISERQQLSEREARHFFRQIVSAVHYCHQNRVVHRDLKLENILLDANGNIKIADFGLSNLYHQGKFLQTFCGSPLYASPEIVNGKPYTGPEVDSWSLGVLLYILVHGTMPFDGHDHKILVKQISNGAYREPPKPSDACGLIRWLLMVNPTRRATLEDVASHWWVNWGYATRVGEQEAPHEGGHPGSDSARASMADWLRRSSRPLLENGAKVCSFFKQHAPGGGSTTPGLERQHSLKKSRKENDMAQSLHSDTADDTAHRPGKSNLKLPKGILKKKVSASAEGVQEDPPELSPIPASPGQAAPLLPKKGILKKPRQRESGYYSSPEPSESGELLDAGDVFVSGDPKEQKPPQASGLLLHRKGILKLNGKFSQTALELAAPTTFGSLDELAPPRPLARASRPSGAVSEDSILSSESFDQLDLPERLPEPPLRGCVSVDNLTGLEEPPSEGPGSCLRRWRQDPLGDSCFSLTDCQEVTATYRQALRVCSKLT
# From the text: as §1, §2
# PKCι = biological target: T6, PKCι (Homo sapiens, UniProt P41743)
# T6 construct: purchased Carna Biosciences
# From the text: as §1, §2
# MAP2K4_Cascade = biological target: T7, MAP2K4_Cascade (Homo sapiens, UniProt P45985)
# T7 construct: purchased Carna Biosciences
# From the text: as §1, §2
# PAK3 = biological target: T8, PAK3 (Homo sapiens, UniProt O75914)
# T8 construct: purchased Carna Biosciences
# From the text: as §1, §2
# MSK2 = biological target: T9, MSK2 (Homo sapiens, UniProt O75676)
# T9 construct: purchased Carna Biosciences
# From the text: as §1, §2
# ZAP70 = biological target: T10, ZAP70 (Homo sapiens, UniProt P43403)
# T10 construct: purchased Carna Biosciences
# From the text: as §1, §2
# WNK3 = biological target: T11, WNK3 (Homo sapiens, UniProt Q9BYP7)
# T11 construct: purchased Carna Biosciences
# From the text: as §1, §2
# SRPK2 = biological target: T12, SRPK2 (Homo sapiens, UniProt P78362)
# T12 construct: purchased Carna Biosciences
# From the text: as §1, §2
# BRSK2 = biological target: T13, BRSK2 (Homo sapiens, UniProt Q8IWQ3)
# T13 construct: purchased Carna Biosciences
# From the text: as §1, §2
# TYRO3 = biological target: T14, TYRO3 (Homo sapiens, UniProt Q06418)
# T14 construct: purchased Carna Biosciences
# T14 sequence (Q06418 41-890): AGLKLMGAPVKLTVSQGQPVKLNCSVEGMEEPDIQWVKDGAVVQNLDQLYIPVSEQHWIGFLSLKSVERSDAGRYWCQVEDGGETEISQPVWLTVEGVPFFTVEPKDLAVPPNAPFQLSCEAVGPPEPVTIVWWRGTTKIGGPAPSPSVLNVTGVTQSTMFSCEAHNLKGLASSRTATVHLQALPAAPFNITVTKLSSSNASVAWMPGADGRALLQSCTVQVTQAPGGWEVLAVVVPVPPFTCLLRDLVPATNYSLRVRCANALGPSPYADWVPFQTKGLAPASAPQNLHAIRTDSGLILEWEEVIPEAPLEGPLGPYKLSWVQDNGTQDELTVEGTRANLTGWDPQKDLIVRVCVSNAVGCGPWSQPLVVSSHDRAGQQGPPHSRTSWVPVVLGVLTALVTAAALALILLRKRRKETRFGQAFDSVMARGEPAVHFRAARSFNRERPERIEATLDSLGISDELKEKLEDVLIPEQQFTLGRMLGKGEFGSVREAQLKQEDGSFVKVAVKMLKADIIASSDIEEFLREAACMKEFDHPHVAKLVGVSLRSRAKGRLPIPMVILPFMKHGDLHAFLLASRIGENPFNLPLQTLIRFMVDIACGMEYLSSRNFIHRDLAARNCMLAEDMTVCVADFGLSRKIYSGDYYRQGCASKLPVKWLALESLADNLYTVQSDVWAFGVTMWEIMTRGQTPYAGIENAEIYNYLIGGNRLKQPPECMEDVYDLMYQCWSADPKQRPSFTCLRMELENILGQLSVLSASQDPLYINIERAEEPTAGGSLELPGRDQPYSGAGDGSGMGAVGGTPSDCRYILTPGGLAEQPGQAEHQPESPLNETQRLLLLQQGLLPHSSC
# From the text: as §1, §2
# MARK3 = biological target: T15, MARK3 (Homo sapiens, UniProt P27448)
# T15 construct: purchased Carna Biosciences
# T15 sequence (P27448 whole entry): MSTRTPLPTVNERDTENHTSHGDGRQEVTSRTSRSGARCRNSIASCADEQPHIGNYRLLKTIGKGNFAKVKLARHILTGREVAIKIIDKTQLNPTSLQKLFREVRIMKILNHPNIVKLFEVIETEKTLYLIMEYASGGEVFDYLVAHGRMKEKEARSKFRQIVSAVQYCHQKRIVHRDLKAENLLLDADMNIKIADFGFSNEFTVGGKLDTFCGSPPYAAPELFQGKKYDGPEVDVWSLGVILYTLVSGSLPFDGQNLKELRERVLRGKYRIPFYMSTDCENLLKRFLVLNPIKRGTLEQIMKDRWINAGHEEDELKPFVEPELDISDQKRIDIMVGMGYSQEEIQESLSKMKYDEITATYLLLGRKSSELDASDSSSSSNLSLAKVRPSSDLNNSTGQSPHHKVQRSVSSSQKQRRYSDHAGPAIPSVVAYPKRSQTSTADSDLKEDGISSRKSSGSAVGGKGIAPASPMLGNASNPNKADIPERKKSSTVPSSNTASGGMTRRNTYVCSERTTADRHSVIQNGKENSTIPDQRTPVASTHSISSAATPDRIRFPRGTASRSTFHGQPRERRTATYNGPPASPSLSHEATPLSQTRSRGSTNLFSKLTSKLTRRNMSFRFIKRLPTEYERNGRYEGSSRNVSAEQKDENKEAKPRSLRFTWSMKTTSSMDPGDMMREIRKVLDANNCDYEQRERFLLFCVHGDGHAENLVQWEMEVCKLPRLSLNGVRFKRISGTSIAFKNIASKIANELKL
# From the text: as §1, §2
# MAP2K3_Cascade = biological target: T16, MAP2K3_Cascade (Homo sapiens, UniProt P46734)
# T16 construct: purchased Carna Biosciences
# From the text: as §1, §2
# RET(M918T) = biological target: T17, RET(M918T) (Homo sapiens, UniProt P07949, M918T)
# T17 construct: purchased Carna Biosciences
# From the text: as §1, §2
# PDK1 = biological target: T18, PDK1 (Homo sapiens, UniProt O15530)
# T18 construct: purchased Carna Biosciences
# From the text: as §1, §2
# CDK6/CycD3 = biological target: T19, CDK6/CycD3 (Homo sapiens, UniProt Q00534)
# T19 construct: purchased Carna Biosciences
# From the text: as §1, §2
# MOS_Cascade = biological target: T20, MOS_Cascade (Homo sapiens, UniProt P00540)
# T20 construct: purchased Carna Biosciences
# From the text: as §1, §2
# FLT3 = biological target: T21, FLT3 (Homo sapiens, UniProt P36888)
# T21 construct: purchased Carna Biosciences
# From the text: as §1, §2
# TSSK2 = biological target: T22, TSSK2 (Homo sapiens, UniProt Q96PF2)
# T22 construct: purchased Carna Biosciences
# From the text: as §1, §2
# AurA = biological target: T23, AurA (Homo sapiens, UniProt O14965)
# T23 construct: purchased Carna Biosciences
# From the text: as §1, §2
# PKCθ = biological target: T24, PKCθ (Homo sapiens, UniProt Q04759)
# T24 construct: purchased Carna Biosciences
# T24 sequence (Q04759 whole entry): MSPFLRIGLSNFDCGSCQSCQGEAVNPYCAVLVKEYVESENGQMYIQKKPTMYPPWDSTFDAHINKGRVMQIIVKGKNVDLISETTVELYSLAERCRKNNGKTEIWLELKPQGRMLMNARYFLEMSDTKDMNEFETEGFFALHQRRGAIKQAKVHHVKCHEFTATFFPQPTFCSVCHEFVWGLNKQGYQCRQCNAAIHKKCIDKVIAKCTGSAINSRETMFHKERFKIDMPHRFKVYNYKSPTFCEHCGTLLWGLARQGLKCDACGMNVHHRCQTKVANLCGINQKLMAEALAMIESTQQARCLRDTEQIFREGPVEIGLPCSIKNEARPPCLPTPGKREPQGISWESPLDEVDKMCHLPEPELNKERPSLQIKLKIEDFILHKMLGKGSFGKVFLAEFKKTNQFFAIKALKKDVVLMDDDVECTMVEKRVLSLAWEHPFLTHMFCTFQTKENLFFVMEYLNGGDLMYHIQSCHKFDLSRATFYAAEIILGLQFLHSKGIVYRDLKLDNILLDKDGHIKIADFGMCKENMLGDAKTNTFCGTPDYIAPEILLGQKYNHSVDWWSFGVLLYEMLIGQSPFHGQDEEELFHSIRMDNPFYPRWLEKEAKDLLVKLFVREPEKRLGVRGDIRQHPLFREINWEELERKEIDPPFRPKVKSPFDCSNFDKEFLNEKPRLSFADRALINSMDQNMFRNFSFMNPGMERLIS
# From the text: as §1, §2
# TAK1-TAB1_Cascade = biological target: T25, TAK1-TAB1_Cascade (Homo sapiens, UniProt O43318)
# T25 construct: purchased Carna Biosciences
# From the text: as §1, §2
# RSK2 = biological target: T26, RSK2 (Homo sapiens, UniProt P51812)
# T26 construct: purchased Carna Biosciences
# From the text: as §1, §2
# NEK7 = biological target: T27, NEK7 (Homo sapiens, UniProt Q8TDX7)
# T27 construct: purchased Carna Biosciences
# T27 sequence (Q8TDX7 whole entry): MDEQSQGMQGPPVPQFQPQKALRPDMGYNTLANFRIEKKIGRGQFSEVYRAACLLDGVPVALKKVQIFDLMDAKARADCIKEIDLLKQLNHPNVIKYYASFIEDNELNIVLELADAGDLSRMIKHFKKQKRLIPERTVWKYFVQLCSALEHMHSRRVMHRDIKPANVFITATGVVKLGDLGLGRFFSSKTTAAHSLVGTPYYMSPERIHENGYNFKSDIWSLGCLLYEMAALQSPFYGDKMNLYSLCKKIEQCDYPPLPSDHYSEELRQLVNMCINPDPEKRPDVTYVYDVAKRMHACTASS
# From the text: as §1, §2
# DYRK2 = biological target: T28, DYRK2 (Homo sapiens, UniProt Q92630)
# T28 construct: purchased Carna Biosciences
# From the text: as §1, §2
# IGF1R = biological target: T29, IGF1R (Homo sapiens, UniProt P08069)
# T29 construct: purchased Carna Biosciences
# From the text: as §1, §2
# EGFR(d746-750) = biological target: T30, EGFR(d746-750) (Homo sapiens, UniProt P00533, DEL746-750)
# T30 construct: purchased Carna Biosciences
# From the text: as §1, §2
# CDK7/CycH/MAT1 = biological target: T31, CDK7/CycH/MAT1 (Homo sapiens, UniProt P50613)
# T31 construct: purchased Carna Biosciences
# T31 sequence (P50613 whole entry): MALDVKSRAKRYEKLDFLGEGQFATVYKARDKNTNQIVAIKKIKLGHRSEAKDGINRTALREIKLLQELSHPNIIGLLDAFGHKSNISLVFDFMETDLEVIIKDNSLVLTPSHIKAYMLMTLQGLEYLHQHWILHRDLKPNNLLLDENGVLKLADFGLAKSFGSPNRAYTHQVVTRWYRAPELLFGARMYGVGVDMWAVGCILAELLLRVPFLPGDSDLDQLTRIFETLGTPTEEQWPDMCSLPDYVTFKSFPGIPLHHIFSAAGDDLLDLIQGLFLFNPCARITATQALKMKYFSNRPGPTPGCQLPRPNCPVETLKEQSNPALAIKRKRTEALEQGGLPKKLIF
# T31 sequence (P51946 whole entry partner): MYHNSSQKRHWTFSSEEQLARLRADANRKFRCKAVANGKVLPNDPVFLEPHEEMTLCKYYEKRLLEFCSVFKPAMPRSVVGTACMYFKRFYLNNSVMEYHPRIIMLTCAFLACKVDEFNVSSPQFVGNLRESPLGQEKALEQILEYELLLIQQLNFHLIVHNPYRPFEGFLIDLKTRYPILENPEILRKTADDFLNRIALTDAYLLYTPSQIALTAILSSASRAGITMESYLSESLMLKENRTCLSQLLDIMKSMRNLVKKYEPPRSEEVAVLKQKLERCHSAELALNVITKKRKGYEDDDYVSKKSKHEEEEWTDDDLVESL
# T31 sequence (P51948 whole entry partner): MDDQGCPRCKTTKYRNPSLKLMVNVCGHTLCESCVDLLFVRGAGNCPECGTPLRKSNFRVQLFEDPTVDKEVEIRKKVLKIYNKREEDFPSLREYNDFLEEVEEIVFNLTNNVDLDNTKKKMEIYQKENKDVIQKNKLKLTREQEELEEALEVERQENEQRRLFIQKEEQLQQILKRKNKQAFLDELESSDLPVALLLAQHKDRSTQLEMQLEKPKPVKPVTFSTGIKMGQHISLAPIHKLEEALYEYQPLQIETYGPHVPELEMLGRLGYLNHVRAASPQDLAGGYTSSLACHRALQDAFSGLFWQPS
# From the text: as §1, §2
# BRSK1 = biological target: T32, BRSK1 (Homo sapiens, UniProt Q8TDC3)
# T32 construct: purchased Carna Biosciences
# From the text: as §1, §2
# EPHA3 = biological target: T33, EPHA3 (Homo sapiens, UniProt P29320)
# T33 construct: purchased Carna Biosciences
# From the text: as §1, §2
# HIPK3 = biological target: T34, HIPK3 (Homo sapiens, UniProt Q9H422)
# T34 construct: purchased Carna Biosciences
# From the text: as §1, §2
# NEK2 = biological target: T35, NEK2 (Homo sapiens, UniProt P51955)
# T35 construct: purchased Carna Biosciences
# T35 sequence (P51955 whole entry): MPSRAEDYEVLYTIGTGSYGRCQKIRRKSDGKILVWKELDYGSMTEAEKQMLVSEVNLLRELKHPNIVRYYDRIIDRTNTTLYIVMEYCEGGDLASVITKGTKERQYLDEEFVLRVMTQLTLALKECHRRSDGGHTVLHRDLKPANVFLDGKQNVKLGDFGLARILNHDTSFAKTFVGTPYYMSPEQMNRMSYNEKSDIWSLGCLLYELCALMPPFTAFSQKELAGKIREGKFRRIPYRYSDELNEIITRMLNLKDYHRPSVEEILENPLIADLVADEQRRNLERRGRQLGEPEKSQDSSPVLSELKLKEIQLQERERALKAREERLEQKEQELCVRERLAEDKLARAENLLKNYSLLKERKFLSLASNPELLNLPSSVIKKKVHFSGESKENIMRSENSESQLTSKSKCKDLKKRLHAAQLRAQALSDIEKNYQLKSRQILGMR
# From the text: as §1, §2
# WNK2 = biological target: T36, WNK2 (Homo sapiens, UniProt Q9Y3S1)
# T36 construct: purchased Carna Biosciences
# From the text: as §1, §2
smiles,measurement,setting,value
"[H]/N=C1/NC(=O)C(=Cc2ccc3c(c2)CCO3)S1 [CaNDY, (Z)-5-[(2,3-dihydrobenzofuran-5-yl)methylene]-2-iminothiazolidin-4-one]",remaining activity at 1 µM,MAPKAPK2,100%
same,remaining activity at 1 µM,PAK4,95%
same,remaining activity at 1 µM,LYNa,97.6%
same,remaining activity at 1 µM,CK1α,73.6%
same,%Activity,NuaK2,98.1%
same,remaining activity at 1 µM,PKCι,101%
same,remaining activity at 1 µM,MAP2K4_Cascade,100%
same,remaining activity at 1 µM,PAK3,109%
same,remaining activity at 1 µM,MSK2,98.3%
same,remaining activity at 1 µM,ZAP70,95.7%
same,remaining activity at 1 µM,WNK3,102%
same,remaining activity at 1 µM,SRPK2,96.6%
same,remaining activity at 1 µM,BRSK2,97.8%
same,remaining activity at 1 µM,TYRO3,104%
same,remaining activity at 1 µM,MARK3,95%
same,remaining activity at 1 µM,MAP2K3_Cascade,101%
same,remaining activity at 1 µM,RET(M918T),102%
same,remaining activity at 1 µM,PDK1,107%
same,remaining activity at 1 µM,CDK6/CycD3,97.1%
same,remaining activity at 1 µM,MOS_Cascade,92.4%
same,remaining activity at 1 µM,FLT3,101%
same,remaining activity at 1 µM,TSSK2,102%
same,remaining activity at 1 µM,AurA,114%
same,remaining activity at 1 µM,PKCθ,74.9%
same,remaining activity at 1 µM,TAK1-TAB1_Cascade,104%
same,remaining activity at 1 µM,RSK2,91.1%
same,remaining activity at 1 µM,NEK7,102%
same,remaining activity at 1 µM,DYRK2,20.3%
same,remaining activity at 1 µM,IGF1R,101%
same,%Activity,EGFR(d746-750),104.8%
same,remaining activity at 1 µM,CDK7/CycH/MAT1,93.6%
same,remaining activity at 1 µM,BRSK1,97.3%
same,remaining activity at 1 µM,EPHA3,96.3%
same,remaining activity at 1 µM,HIPK3,22.4%
same,remaining activity at 1 µM,NEK2,95.3%
same,remaining activity at 1 µM,WNK2,101%
